Results published in patent US8637681B2, “Pyrrolyl substituted dihydroindol-2-one derivatives, preparation methods and uses thereof” (Qilu Pharmaceutical Co., Ltd., priority 2010, dated 2014).

What was measured:
[1] = system: arterial ring angiogenesis in rats; experiment: Inhibitory actions on arterial ring angiogenesis in rats; format: cell-based; settings: Rattus norvegicus, area covered by micrangiums vs control well, read-out: Inhibitory rate (%); for inhibition at 0.2 µg/mL: 0.2 μg/ml; for inhibition at 1 µg/mL: 1 μg/ml; for inhibition at 5 µg/mL: 5 μg/ml
Experimental: This experiment was conducted by referring to the method described by R. F. Nicosia et al (Nicosia, R. F., et al. Am J Pathol., 1997, 151, 1379-1386). Rats were executed by cervical dislocation. The thoracic aorta was carefully separated, and placed in a container with physiological saline. The excess tissues were carefully cut off. The blood vessels were cut with a pair of ophthalmic scissors to form 1 mm thick vascular ring slices. To a pre-cooled 96-well cell culture plate, one separated vascular ring was placed in the center of each well. 70 μl of pre-molten Matrigel was carefully added to cover the vascular ring, which was incubated at 37° C. for 1 h so as to solidify it. […] The sample was placed in incubator for conventional culture, and each compound was tested at least in two repeated wells, and each test was repeated twice. […] The fresh culture medium was replaced every 3 days, and the drug was changed at the same time. The survival status of vascular rings was observed under microscope, and pictures were taken at the same time. Image Pro Plus software was used to calculate the area covered by micrangiums. The average inhibition rate was calculated by using the formula: inhibition rate (%)=(area of control well−area of drug well)/area of control well×100%.

[2] = Cytotoxicity test (SRB), A549; format: cell-based; settings: human, A549 non-small cell lung cancer cells
Experimental: (§1) Cytotoxicity of the compounds of the present invention was tested with human non-small cell lung cancer cells A549, human cervical cancer Hela cells, human skin cancer cells A431. The test was performed by referring to the method described by Rusnak et al (Rusnak D. W., et al., Cell Prolif., 2007, 40, 580-94).
(§2) In Dulbecco's Modified Eagle Medium (DMEM) comprising 10% fetal bovine serum, 2 mM glutamine and non-essential amino acids, cells were cultured at 37° C. in 5% CO2 cell incubator. Trypsin/ethylenediamine tetraacetic acid (EDTA) were used to harvest cells in cell culture bottle. The cells were added to a 96-well cell culture plate, 4000/well (0.1 ml medium), adhering wall overnight, 0.1 ml of the diluted solution of the compounds to be tested was added, the final concentration of DMSO was 0.25%. The cell culture plate was incubated at 37° C., 5% CO2 conditions for 72 h. The change of cellular morphology was observed under microscope, and then 50 μl of 50% (mass/volume) trichloroacetic acid (TCA) was added to each well to fix cells. The final concentration of TCA was 10%. It stood for 5 min, than was placed in 4° C. refrigerator for 1 h, the wells of the culture plate were washed with deionized water for 5 times to remove TCA, drained, dried in air until no wet trace was observed. 100 μl of 0.4% (mass/volume) SRB was added to each well, stood at room temperature for 10 min. The liquid in each well was discarded, and then the wells were washed with 1% acetic acid for 5 times, dried in air, extracted with 150 μl of 10 mM Tris base (trihydroxymethylaminomethane, pH 10.5). The absorption at a wavelength of 540 nm was measured. The IC50 (μM) of the compound was calculated using Logit method.

[3] = Cytotoxicity test (SRB), Hela; format: cell-based; settings: human, Hela cervical cancer cells
Experimental: Cytotoxicity of the compounds of the present invention was tested with human non-small cell lung cancer cells A549, human cervical cancer Hela cells, human skin cancer cells A431. The test was performed by referring to the method described by Rusnak et al (Rusnak D. W., et al., Cell Prolif., 2007, 40, 580-94). […] Trypsin/ethylenediamine tetraacetic acid (EDTA) were used to harvest cells in cell culture bottle. The cells were added to a 96-well cell culture plate, 4000/well (0.1 ml medium), adhering wall overnight, 0.1 ml of the diluted solution of the compounds to be tested was added, the final concentration of DMSO was 0.25%. The cell culture plate was incubated at 37° C., 5% CO2 conditions for 72 h. […] The absorption at a wavelength of 540 nm was measured. The IC50 (μM) of the compound was calculated using Logit method.

[4] = Cytotoxicity test (SRB), A431; format: cell-based; settings: human, A431 skin cancer cells
Experimental: as §1, §2

[5] = system: human colon cancer HT 29 transplanted tumor; experiment: Nude mice transplanted tumor test; format: in vivo, female Balb/cA nude mice; set-up: key to d21 Vave ± SD (average tumor volume): tumor volume TV = ½×a×b² (a, b = major, minor diameter), in mm³; settings: for Dead animal number / inhibition in vivo at 80 mg/kg / d21 Wave ± SD (average bodyweight of nude mice) / d21 Vave ± SD (average tumor volume) / d21 RTV ± SD (relative tumor volume): 80 mg/kg intragastrically each day for 20 days; for Dead animal number: dead/total animals; for inhibition in vivo at 80 mg/kg: Mus musculus, HT-29, po, 504 h, (1−T/C)×100%, read-out: Tumor inhibition rate d21 (%); for inhibition in vivo at 80 mg/kg / d21 Wave ± SD (average bodyweight of nude mice) / d21 Vave ± SD (average tumor volume) / d21 RTV ± SD (relative tumor volume): d21; for d0 Wave ± SD (average bodyweight of nude mice): d0, at grouping before administration (baseline); for d21 Vave ± SD (average tumor volume): HT 29 in nude mice; for d21 RTV ± SD (relative tumor volume): RTV=Vt/V0
Experimental: The nude mice transplanted tumor test used female Balb/cA nude mice, and tumor strains were human colon cancer HT 29 strains.
Under sterile condition, eugonic tumor tissues stage were cut into pieces of about 1.5 mm^3, and inoculated at right axillary fossa of the nude mice. The transplanted tumor diameter was measured by vernier caliper, and the animals were randomly grouped after the tumors grew to about 120 mm^3. The positive control group and the compounds group in a dosage of 80 mg/kg were administered intragastrically each day for consecutive 20 days. The negative control group was given equivalent amount of injection water containing 0.1% Tween 80. Tumor diameters and the bodyweight of mice were measured 2-3 times every week. The evaluation indexes observed in the test include relative tumor proliferation rate, bodyweight and general states. The formulation for calculating tumor volume (TV) is: TV=½×a×b^2, wherein a, b represent major diameter and minor diameter of tumor; Relative tumor volume (RTV) was calculated according the results of measurement by the following formula: RTV=Vt/V0, wherein V0 is tumor volume measured when dividing groups for administration, and Vt is tumor volume measured after each administration.

Compound CCN(CC)CC(=O)Nc1c(C)[nH]c(/C=C2\C(=O)Nc3ccc(Cl)cc32)c1C [Compound 21, N-{5-[5-chloro-2-oxo-1,2-dihydro-indol-(3Z)-ylidenemethyl]-2,4-dimethyl-1H-pyrrol-3-yl}-2-(N,N-diethylamino)acetamide] has an inhibition at 0.2 µg/mL [1] of 95%, an inhibition at 1 µg/mL [1] of 100% and an inhibition at 5 µg/mL [1] of 100%. The IC50 at 72 h [2] was greater than 30 µM, the IC50 at 72 h [3] was greater than 30 µM and the IC50 at 72 h [4] was greater than 30 µM. For the same compound, the Dead animal number [5] was 0/6, the “Activity of inhibiting HT-29 transplanted tumor in vivo (in words)” value ([5]; 80 mg/kg, compared with positive control Sunitinib) was “inhibitory activity comparable to the positive control Sunitinib” and the inhibition in vivo at 80 mg/kg [5] was 89%. The “d0 Wave ± SD (average bodyweight of nude mice)” value (“d0 Wave ± SD” below) [5] was 18.9 ± 0.47, the “d21 Wave ± SD (average bodyweight of nude mice)” value (“d21 Wave ± SD” for short) [5] was 19.3 ± 0.76 and the “d21 Vave ± SD (average tumor volume)” value ([5]; in mm³ (unit assumed)) was 94.3 ± 37.2. The “d21 RTV ± SD (relative tumor volume)” value [5] was 0.79 ± 0.63.

Compound CCN(CC)CC(=O)Nc1c(C)[nH]c(/C=C2\C(=O)Nc3ccc([N+](=O)[O-])cc32)c1C [Compound 26, N-{5-[5-nitro-2-oxo-1,2-dihydro-indol-(3Z)-ylidenemethyl]-2,4-dimethyl-1H-pyrrol-3-yl}-2-(N,N-diethylamino)acetamide] has an inhibition at 0.2 µg/mL [1] of 93%, an inhibition at 1 µg/mL [1] of 100% and an inhibition at 5 µg/mL [1] of 100%. For the same compound, the IC50 at 72 h [2] was greater than 30 µM, the IC50 at 72 h [3] was 4.62 µM and the IC50 at 72 h [4] was greater than 30 µM. For the same compound, the Dead animal number [5] was 0/6, the inhibition in vivo at 80 mg/kg [5] was 64.8% and the “d0 Wave ± SD” value [5] was 19.3 ± 0.55. For the same compound, the “d21 Wave ± SD” value [5] was 20.5 ± 0.35, the “d21 Vave ± SD (average tumor volume)” value [5] was 305.6 ± 46.7 and the “d21 RTV ± SD (relative tumor volume)” value [5] was 2.53 ± 0.43.

CCN(CC)CC(=O)Nc1c(C)[nH]c(/C=C2\C(=O)Nc3ccc(NS(C)(=O)=O)cc32)c1C [Compound 25, N-{5-[5-methylsulfonylamino-2-oxo-1,2-dihydro-indol-(3Z)-ylidenemethyl]-2,4-dimethyl-1H-pyrrol-3-yl}-2-(N,N-diethylamino)acetamide] gave an inhibition at 0.2 µg/mL [1] of 89%, an inhibition at 1 µg/mL [1] of 100% and an inhibition at 5 µg/mL [1] of 100%. It also gave an IC50 at 72 h [2] greater than 30 µM, an IC50 at 72 h [3] greater than 30 µM and an IC50 at 72 h [4] of 6.57 µM.

Cc1[nH]c(/C=C2\C(=O)Nc3ccc(F)cc32)c(C)c1NC(=O)CN1CCCC1 [Compound 17, N-{5-[5-fluoro-2-oxo-1,2-dihydro-indol-(3Z)-ylidenemethyl]-2,4-dimethyl-1H-pyrrol-3-yl}-2-(tetrahydropyrrol-1-yl)acetamide] showed an inhibition at 0.2 µg/mL [1] of 89%, an inhibition at 1 µg/mL [1] of 100% and an inhibition at 5 µg/mL [1] of 100%. The IC50 at 72 h [2] was greater than 30 µM, the IC50 at 72 h [3] was greater than 30 µM and the IC50 at 72 h [4] was greater than 30 µM. For the same compound, the Dead animal number [5] was 0/6, the inhibition in vivo at 80 mg/kg [5] was 63.5% and the “d0 Wave ± SD” value [5] was 18.9 ± 0.58. For the same compound, the “d21 Wave ± SD” value [5] was 19.2 ± 0.82, the “d21 Vave ± SD (average tumor volume)” value [5] was 324.5 ± 39.4 and the “d21 RTV ± SD (relative tumor volume)” value [5] was 2.63 ± 0.53.

For CCN(CC)CCC(=O)Nc1c(C)[nH]c(/C=C2\C(=O)Nc3ccc(Cl)cc32)c1C [Compound 2, N-{5-[5-chloro-2-oxo-1,2-dihydro-indol-(3Z)-ylidenemethyl]-2,4-dimethyl-1H-pyrrol-3-yl}-3-(N,N-diethylamino)propionamide], the inhibition at 0.2 µg/mL [1] was 94%, the inhibition at 1 µg/mL [1] was 100% and the inhibition at 5 µg/mL [1] was 100%. It also gave an IC50 at 72 h [2] greater than 30 µM, an IC50 at 72 h [3] greater than 30 µM and an IC50 at 72 h [4] greater than 30 µM. The Dead animal number [5] was 0/6, the inhibition in vivo at 80 mg/kg [5] was 63.8% and the “d0 Wave ± SD” value [5] was 18.8 ± 0.35. The “d21 Wave ± SD” value [5] was 19.9 ± 0.68, the “d21 Vave ± SD (average tumor volume)” value [5] was 300.3 ± 36.8 and the “d21 RTV ± SD (relative tumor volume)” value [5] was 2.60 ± 0.52.

CCN(CC)CC(=O)Nc1c(C)[nH]c(/C=C2\C(=O)Nc3cc(OC)ccc32)c1C [Compound 23, N-{5-[6-methoxy-2-oxo-1,2-dihydro-indol-(3Z)-ylidenemethyl]-2,4-dimethyl-1H-pyrrol-3-yl}-2-(N,N-diethylamino)acetamide] showed an inhibition at 0.2 µg/mL [1] of 90%, an inhibition at 1 µg/mL [1] of 100% and an inhibition at 5 µg/mL [1] of 100%. It also gave an IC50 at 72 h [2] greater than 30 µM, an IC50 at 72 h [3] greater than 30 µM and an IC50 at 72 h [4] greater than 30 µM.

In the case of Cc1[nH]c(/C=C2\C(=O)Nc3ccc(F)cc32)c(C)c1NC(=O)CN1CCN(C)CC1 [Compound 15, N-{5-[5-fluoro-2-oxo-1,2-dihydro-indol-(3Z)-ylidenemethyl]-2,4-dimethyl-1H-pyrrol-3-yl}-2-(4-methylpiperazin-1-yl)acetamide], the inhibition at 0.2 µg/mL [1] is reported as 89%, the inhibition at 1 µg/mL [1] is reported as 100% and the inhibition at 5 µg/mL [1] is reported as 100%. It also gave an IC50 at 72 h [2] greater than 30 µM, an IC50 at 72 h [3] greater than 30 µM and an IC50 at 72 h [4] greater than 30 µM.

CCN(CC)CC(=O)Nc1c(C)[nH]c(/C=C2\C(=O)Nc3cc(C)ccc32)c1C [Compound 27, N-{5-[6-methyl-2-oxo-1,2-dihydro-indol-(3Z)-ylidenemethyl]-2,4-dimethyl-1H-pyrrol-3-yl}-2-(N,N-diethylamino)acetamide] gave an inhibition at 0.2 µg/mL [1] of 78%, an inhibition at 1 µg/mL [1] of 95% and an inhibition at 5 µg/mL [1] of 100%. It also gave an IC50 at 72 h [2] greater than 30 µM, an IC50 at 72 h [3] greater than 30 µM and an IC50 at 72 h [4] greater than 30 µM.

Cc1[nH]c(/C=C2\C(=O)Nc3ccc(F)cc32)c(C)c1NC(=O)CCN1CCCC1 [Compound 14, N-{5-[5-fluoro-2-oxo-1,2-dihydro-indol-(3Z)-ylidenemethyl]-2,4-dimethyl-1H-pyrrol-3-yl}-3-(tetrahydropyrrol-1-yl)propionamide] showed an inhibition at 0.2 µg/mL [1] of 88%, an inhibition at 1 µg/mL [1] of 100% and an inhibition at 5 µg/mL [1] of 100%. It also gave an IC50 at 72 h [2] greater than 30 µM, an IC50 at 72 h [3] greater than 30 µM and an IC50 at 72 h [4] greater than 30 µM.
